Consider one compound from patent US20140094461A1, “BIOMARKERS FOR HEDGEHOG INHIBITOR THERAPY” (priority 2011, published 2014).

The test system of data set [1] is basal cell carcinoma (BCC). Description: Phase I dose escalation trial, adult BCC patients with PTCH or SMO mutations: clinical response. In kind it is in vivo, human. From the text: In addition to the Hedgehog-activated medulloblastoma, basal cell carcinoma (BCC) is another cancer type that is mostly driven by mutations or genetic lesions of the Hedgehog pathway genes that lead to constitutive activation of the Hedgehog pathway. […] In an ongoing phase I, dose escalation trial of methyl-4′-trifluoromethoxy-biphenyl-3-carboxylic acid [6-(cis-2,6-dimethyl-morpholin-4-yl)-pyridin-3-yl]-amide, an Hedgehog signaling inhibitor antagonizing SMO, adult BCC patients were enrolled among patients with other solid tumors. Mutational analysis of PTCH1 and SMO by directly sequencing was performed to the archival tumor specimens collected at the time of diagnosis from the enrolled BCC patients. […] The method of the invention was used to determine the Hedgehog activation status of BCC tumors from these patients. With both the 5-gene and 8-gene models, the probability score of all 6 cases were above the pre-specified cut-off and therefore all were called Hedgehog-activated. Among these 6 patients, 2 achieved confirmed partial response on methyl-4′-trifluoromethoxy-biphenyl-3-carboxylic acid [6-(cis-2,6-dimethyl-morpholin-4-yl)-pyridin-3-yl]-amide treatment, 2 had stable disease for more than 6 month, and the other 2 patients discontinued methyl-4′-trifluoromethoxy-biphenyl-3-carboxylic acid [6-(cis-2,6-dimethyl-morpholin-4-yl)-pyridin-3-yl]-amide due to adverse events after less than 2 months of therapy which might be too brief to observe any clinical activities. […] The method of the invention can be used for identifying other types of tumor with the same underlining Hedgehog-mutation driven etiology that might preferentially benefit from a Hedgehog signaling inhibitor therapy.

A further data set relates to medulloblastoma. Put plainly: Phase I dose escalation trial, adult medulloblastoma patients: clinical response. In kind it is in vivo, human. An excerpt: Adult cancer patients including patients with medulloblastoma, were enrolled into an ongoing phase I, dose escalation trial of methyl-4′-trifluoromethoxy-biphenyl-3-carboxylic acid [6-(cis-2,6-dimethyl-morpholin-4-yl)-pyridin-3-yl]-amide to evaluate safety and tolerability of methyl-4′-trifluoromethoxy-biphenyl-3-carboxylic acid [6-(cis-2,6-dimethyl-morpholin-4-yl)-pyridin-3-yl]-amide and assess maximally tolerated dose of methyl-4′-trifluoromethoxy-biphenyl-3-carboxylic acid [6-(cis-2,6-dimethyl-morpholin-4-yl)-pyridin-3-yl]-amide for adult patients. Archival FFPE tumor specimens collected prior to the start of the trial are available for analysis by the method of the invention from 3 enrolled medulloblastoma patients in this trial.
Based on the 8-gene and 5-gene predictive model, the method of the invention was used to determine the Hedgehog activation status in tumor for these 3 patients. The two responders were determined to have Hedgehog-activated tumor while the tumor from the non-responder was called non-Hedgehog-activated. In addition, the single genes, SPHK1, OTX2, SFRP1, PDLIM3, or SHROOM2 were each used to determine the Hedgehog activation status based on the pre-established cut-off for each of the genes. By each of the single gene, the same Hedgehog-activated and non-Hedgehog-activated calls were made to the two responders and one non-responder, respectively. Among the 3 patients, only one patient had adequate tumor tissue samples available for additional mutational analysis of the PTCH1 and SMO gene. […] Inactivating PTCH1 mutations have been identified as a major mechanism of constitutively activating Hedgehog pathway in medulloblastoma. Therefore, identification of this PTCH1 mutation provides a mechanistic basis for Hedgehog pathway activation and observed clinical activity against Hedgehog signaling inhibitor in this patient and further validates the finding by the method of the invention.

Setting [2] is: medulloblastoma patient 1, daily dose of 200 mg.

`Cc1c(C(=O)Nc2ccc(N3C[C@@H](C)O[C@@H](C)C3)nc2)cccc1-c1ccc(OC(F)(F)F)cc1` [methyl-4′-trifluoromethoxy-biphenyl-3-carboxylic acid [6-(cis-2,6-dimethyl-morpholin-4-yl)-pyridin-3-yl]-amide]: in data set [1] (of 6 BCC patients with PTCH or SMO mutations), the “number of patients with stable disease for more than 6 month” value is 2 patients. Also, in data set [1] (of 6 BCC patients with PTCH or SMO mutations, all called Hedgehog-activated), the “number of patients with confirmed partial response” value was 2 patients. In addition, the “number of patients who discontinued due to adverse events” value in data set [1] (of 6 BCC patients, after less than 2 months of therapy) was 2 patients. In addition, the “time of treatment until progression” value in the data set on medulloblastoma (3rd medulloblastoma patient, daily dose of 200 mg) is 52 days. For the same compound, in the data set on medulloblastoma (3rd medulloblastoma patient, daily dose of 200 mg, non-Hedgehog-activated tumor), the clinical outcome is on record as “progressed rapidly”. In addition, in the data set with medulloblastoma (setting [2]), the “duration of response before disease progression” value was found to be 4 months and the “time of treatment until partial response” value is 2 months. Further, the “tumor response by the RECIST criteria” value in the data set on medulloblastoma (medulloblastoma patient 1, daily dose of 200 mg, Hedgehog-activated tumor) is “partial response (PR)”. The “response measured by positron emission tomography (PET)” value with medulloblastoma (metastatic medulloblastoma patient without measurable lesion, 1500 mg daily dose, Hedgehog-activated tumor, PTCH1 mutation) is recorded as “metabolic partial response”. The “duration of metabolic partial response before disease relapse” value in the data set with medulloblastoma (metastatic medulloblastoma patient, 1500 mg daily dose) was 7 months.
